In patent publication US20210220374A1, “METHODS OF TREATING TE[…]” (Clarus Therapeutics, Inc., priority 2013, published 2021):

Columns and labels:
[1] = Seven-day repeat-dose pharmacokinetic study (study LOT-A), TU BID; type: in vivo, hypogonadal men; details: for Baseline-corrected Cavg / Tmax: serum T
Description: The probability model was based on the pharmacokinetic results obtained from the hypogonadal patient population that participated in the two multi-dose TU treatments in study LOT-A. As noted previously, 29 hypogonadal males participated in the study, 28 of them completed Treatment Period 1 (300 mg T, as TU, BID) and 24 of them completed Treatment Period 3 (200 mg T, as TU, BID).
Formulation B was studied for its acute tolerability and steady-state serum pharmacokinetic profile at two doses administered twice-daily to hypogonadal men. The study was designed as an open-label, repeat dose, cross-over, pharmacokinetic study (with food effect examined in one arm).
Twenty nine (29) hypogonadal men were enrolled after giving written informed consent, 24 of which completed the study. Each subject who completed the study received a regimen of Formulation B as follows: […]
1. 7 daily doses of 600 mg T as TU BID (300 mg/dose), i.e., 3 capsules/dose 2. 8 daily doses of 400 mg T as TU BID (200 mg/dose)
Doses were administered as capsules to subjects 30 minutes after initiation of meals (breakfast and dinner), except for Day 8, when the morning dose was administered fasting.

[2] = Example 3 four-week study of Formulation B (LOT-BB); type: in vivo, hypogonadal men
Description: The study was designed as an open-label, repeat dose, pharmacokinetic study.
For each subject, the “Day 28” serial PK sampling day was scheduled for Day 32 of the study. […] Doses were administered as capsules, with subjects instructed to take doses 30 minutes after initiation of meals (breakfast and dinner).

## CCCCCCCCCCC(=O)O[C@H]1CC[C@H]2[C@@H]3CCC4=CC(=O)CC[C@]4(C)[C@H]3CC[C@]12C [TU, testosterone undecanoate]
[1]; fasting conditions vs meal
  Decrease in serum T exposures (Cmax and AUC): greater than 50%
[1]; in vivo
  DHT concentrations as percent of T concentrations: 11-34%
  Pre-dose steady-state estradiol concentrations: 20 to 30 pg/mL
[1]; prior to Treatment Period 2, after washout
  Mean baseline T concentration (endogenous T production): 152 ng/dL
[1]; prior to Treatment Period 3, after washout
  Mean baseline T concentration (endogenous T production): 139 ng/dL
[1]; prior to Treatment Period 4, after washout
  Mean baseline T concentration (endogenous T production): 145 ng/dL
[1]; 200 mg BID
  Baseline-corrected Cavg: 379 ± 255
[1]; 300 mg BID
  Baseline-corrected Cavg: 586 ± 330
[1]; 300 mg BID, AM dose
  Tmax: 4.5 ± 2.1 h
[1]; 300 mg BID, PM dose
  Tmax: 17.9 ± 2.6 h
[1]; simulated 24-hour profile from 12-hour data, 200 mg T (as TU) BID, fed
  Subjects with serum T Cavg in the eugonadal range over 24 hours: 77%
[2]; 200 mg T BID as TU
  Time to T steady-state: 5 to 7 days
[2]; 200 mg T BID as TU, 28 days
  Subjects with Cmax greater than 1500 ng/dL: 13.3%
[2]; 200 mg T BID as TU, 28 days, no dose adjustment
  Subjects with serum T Cavg within the normal range: 86.7%
[2]; after 28 days of treatment
  Endogenous serum T baseline concentration, mean: 108 ng/dL
[2]; after discontinuing treatment
  Time for DHT concentrations to return to pretreatment levels: ≤ 36 h
  Time for E2 concentrations to return to pretreatment levels: ≤ 36 h
[2]; in vivo
  Continued treatment required for maximal suppression of endogenous T production: 5 to 7 days
[2]; steady state
  E2 mean Cavg: 0.022 ng/mL
  E2 mean Cmin: 0.0155 ng/mL
